Results: US20230113037A1 (Bayer Aktiengesellschaft, priority 2019, published 2023)
Read-outs that look alike come from different tables or passages of the source.

Columns and labels:
AHR [1] = biological target: T1, AHR (Homo sapiens, UniProt P35869); assay: In vitro assay 1: antagonism in human cell line (AHR transactivation, firefly luciferase reporter, kynurenic acid prestimulated); assay type: cell-based; settings: AHR Antagonism Human IC50 [M]
T1 construct: U87 MG glioblastoma cells (ATCC #HTB-14) endogenously expressing AHR; endogenous in cells; host or cells: U87 MG glioblastoma cells (ATCC #HTB-14)
T1 sequence (P35869 11-848): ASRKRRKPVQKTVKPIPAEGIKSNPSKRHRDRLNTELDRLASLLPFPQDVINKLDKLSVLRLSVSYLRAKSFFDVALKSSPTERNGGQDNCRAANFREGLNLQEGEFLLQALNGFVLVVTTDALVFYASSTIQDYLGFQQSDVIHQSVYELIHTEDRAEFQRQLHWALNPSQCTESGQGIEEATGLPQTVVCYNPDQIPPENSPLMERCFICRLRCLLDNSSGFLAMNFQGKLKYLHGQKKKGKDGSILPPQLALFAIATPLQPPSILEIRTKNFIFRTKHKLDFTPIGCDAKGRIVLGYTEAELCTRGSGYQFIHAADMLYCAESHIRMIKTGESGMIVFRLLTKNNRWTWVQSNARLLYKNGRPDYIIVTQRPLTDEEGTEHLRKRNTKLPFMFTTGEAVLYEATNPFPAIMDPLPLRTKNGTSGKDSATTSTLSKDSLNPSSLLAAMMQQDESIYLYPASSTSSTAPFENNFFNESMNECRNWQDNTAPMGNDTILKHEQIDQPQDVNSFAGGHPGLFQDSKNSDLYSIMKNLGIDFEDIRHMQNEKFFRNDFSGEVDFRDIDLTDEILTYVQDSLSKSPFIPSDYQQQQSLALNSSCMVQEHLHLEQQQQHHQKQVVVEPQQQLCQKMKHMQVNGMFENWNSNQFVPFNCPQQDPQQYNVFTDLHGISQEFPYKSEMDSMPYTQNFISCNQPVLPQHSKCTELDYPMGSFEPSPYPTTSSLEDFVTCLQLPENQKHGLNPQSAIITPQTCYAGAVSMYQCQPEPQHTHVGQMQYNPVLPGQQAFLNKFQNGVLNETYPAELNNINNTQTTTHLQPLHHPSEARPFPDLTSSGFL
Outline: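 Antagonism measured as loss of kynurenic acid-driven firefly luciferase from DRE reporter in stably transfected U87 MG cells; constitutive Renilla signal monitors cytotoxicity. Positive/negative control normalization, staurosporine 5 μM with 150 μM kynurenic acid as inhibition control; replicates given as mean or median.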

AHR [2] = biological target: T2, AHR (Mus musculus, UniProt P30561); assay: In vitro assay 3: antagonism in mouse cell line (AHR transactivation, firefly luciferase reporter, kynurenic acid prestimulated); assay type: cell-based
T2 sequence (P30561 1-848 P471L/N533S/M589L): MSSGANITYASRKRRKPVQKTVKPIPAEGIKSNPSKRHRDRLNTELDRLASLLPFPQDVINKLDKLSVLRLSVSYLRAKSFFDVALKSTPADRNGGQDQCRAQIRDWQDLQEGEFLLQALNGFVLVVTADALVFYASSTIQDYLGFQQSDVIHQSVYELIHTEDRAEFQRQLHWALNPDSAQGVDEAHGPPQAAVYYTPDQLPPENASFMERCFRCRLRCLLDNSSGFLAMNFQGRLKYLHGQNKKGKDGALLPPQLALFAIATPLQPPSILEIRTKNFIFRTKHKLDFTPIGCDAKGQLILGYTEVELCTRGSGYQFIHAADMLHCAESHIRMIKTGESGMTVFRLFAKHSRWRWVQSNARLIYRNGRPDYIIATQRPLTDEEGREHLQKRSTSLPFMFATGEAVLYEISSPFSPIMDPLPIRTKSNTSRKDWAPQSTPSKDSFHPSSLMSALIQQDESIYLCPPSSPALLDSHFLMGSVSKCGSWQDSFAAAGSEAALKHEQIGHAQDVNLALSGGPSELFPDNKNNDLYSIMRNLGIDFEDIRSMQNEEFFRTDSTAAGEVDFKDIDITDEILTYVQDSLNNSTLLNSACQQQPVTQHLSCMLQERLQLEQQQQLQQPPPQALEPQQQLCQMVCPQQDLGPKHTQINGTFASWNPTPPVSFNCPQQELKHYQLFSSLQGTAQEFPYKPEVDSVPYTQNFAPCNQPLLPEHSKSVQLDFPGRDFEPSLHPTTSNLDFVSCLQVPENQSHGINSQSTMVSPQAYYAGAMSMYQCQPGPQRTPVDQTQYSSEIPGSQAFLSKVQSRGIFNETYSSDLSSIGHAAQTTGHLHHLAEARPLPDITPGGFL
Outline: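 Luminescence from an AHR-dependent DRE-luciferase reporter, stably integrated in mouse cells, quantifies blockade of kynurenic acid-driven activation. Unstimulated cells mark maximal inhibition; normalization uses both control types, and multiply tested compounds carry mean or median values.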

[3] = mouse Hepa 1c1c7 cells, 200 μM kynurenic acid, 20 hours, read-out: AHR Antagonism Mouse IC50
[4] = Hepa 1c1c7 cells, 200 μM kynurenic acid, 20 hours, firefly luciferase reporter, read-out: AHR Antagonism Mouse IC50

Structure (SMILES)	IC50 (AHR [1]) [M]	IC50 (AHR [2]; [3]) [nM]	IC50 (AHR [1]; firefly luciferase reporter) [M]	IC50 (AHR [2]; [4]) [nM]	IC50 (AHR [2]; read-out: AHR Antagonism Mouse IC50, mouse Hepa 1c1c7 cells, 200 μM kynurenic acid, 20 hours) [nM]
Cc1ccccc1-c1nc2c3ccccc3nc(NC3CCCNC3=O)n2n1 (single isomer, unassigned) [Example 49, 3-{[2-(2-methylphenyl)[1,2,4]triazolo[1,5-c]quinazolin-5-yl]amino}piperidin-2-one]	8.5e-08	26.1			
O=C1NCCNC[C@H]1Nc1nc2ccccc2c2nc(-c3ccco3)nn12 [Example 258, (6R)-6-{[2-(furan-2-yl)[1,2,4]triazolo[1,5-c]quinazolin-5-yl]amino}-1,4-diazepan-5-one]	7.15e-07	398			
Nc1ccc(-c2nc3c4ccccc4nc(N[C@@H]4CCCCNC4=O)n3n2)cn1 [Example 637, (3R)-3-{[2-(6-aminopyridin-3-yl)[1,2,4]triazolo[1,5-c]quinazolin-5-yl]amino}azepan-2-one]	1.15e-08	21.4			
COc1ccc(-c2nc3c4cccc(SC(C)C)c4nc(N[C@@H]4CCCCNC4=O)n3n2)cc1 [Example 767, (3R)-3-({2-(4-methoxyphenyl)-7-[(propan-2-yl)sulfanyl][1,2,4]triazolo[1,5-c]quinazolin-5-yl}amino)azepan-2-one]	2.69e-08	47.6			
Cc1cccc2c1nc(N[C@@H]1CCCCNC1=O)n1nc(-c3cnn(C)c3)nc21 [Example 142, (3R)-3-{[7-methyl-2-(1-methyl-1H-pyrazol-4-yl)[1,2,4]triazolo[1,5-c]quinazolin-5-yl]amino}azepan-2-one]	2.15e-09	21.1			
O=C1NCCCC[C@@H]1Nc1nc2ccccc2c2nc(-c3cccc(OC(F)(F)F)c3)nn12 [Example 315, (3S)-3-({2-[3-(trifluoromethoxy)phenyl][1,2,4]triazolo[1,5-c]quinazolin-5-yl}amino)azepan-2-one]	2.06e-07	50.8			
N#Cc1ccc(-c2nc3c4ccccc4nc(N[C@@H]4CCCCNC4=O)n3n2)cc1 [Example 387, 4-(5-{[(3R)-2-oxoazepan-3-yl]amino}[1,2,4]triazolo[1,5-c]quinazolin-2-yl)benzonitrile]	7.93e-10	0.398			
O=C1NCCCC[C@H]1Nc1nc2c(Br)cccc2c2nc(-c3cnn(CC4CCC4)c3)nn12 [Example 832, (3R)-3-({7-bromo-2-[1-(cyclobutylmethyl)-1H-pyrazol-4-yl][1,2,4]triazolo[1,5-c]quinazolin-5-yl}amino)azepan-2-one]			2.58e-09	5.68	
Cc1nn(C)cc1-c1nc2c3cccc(C(F)(F)F)c3nc(N[C@@H]3CNCCNC3=O)n2n1 [Example 975, (6R)-6-{[2-(1,3-dimethyl-1H-pyrazol-4-yl)-7-(trifluoromethyl)[1,2,4]triazolo[1,5-c]quinazolin-5-yl]amino}-1,4-diazepan-5-one]			8.67e-10	4.24	
O=C1NCCCC[C@H]1Nc1nc2ccccc2c2nc(-c3ccc(Br)o3)nn12 [Example 537, (3R)-3-{[2-(5-bromofuran-2-yl)[1,2,4]triazolo[1,5-c]quinazolin-5-yl]amino}azepan-2-one]	4.31e-09	1.9			
Cn1cc(-c2nc3c4c(C(F)(F)F)cccc4nc(N[C@@H]4CCCCNC4=O)n3n2)cn1 [Example 173, (3R)-3-{[2-(1-methyl-1H-pyrazol-4-yl)-10-(trifluoromethyl)[1,2,4]triazolo[1,5-c]quinazolin-5-yl]amino}azepan-2-one]	7.21e-08	112			
CCCCC(Nc1nc2ccccc2c2nc(-c3cccc(OC(F)(F)F)c3)nn12)C(N)=O (single isomer, unassigned) [Example 324, N^2-{2-[3-(trifluoromethoxy)phenyl][1,2,4]triazolo[1,5-c]quinazolin-5-yl}-norleucinamide]	2.02e-08				16.4
CSc1cccc(-c2nc3c4ccccc4nc(N[C@@H]4CCCCNC4=O)n3n2)c1 [Example 449, (3R)-3-({2-[3-(methylsulfanyl)phenyl][1,2,4]triazolo[1,5-c]quinazolin-5-yl}amino)azepan-2-one]	1.73e-08	21			
COc1ccc(-c2nc3c4ccccc4nc(N[C@@H]4CNCCNC4=O)n3n2)cc1OC [Example 409, (6R)-6-{[2-(3,4-dimethoxyphenyl)[1,2,4]triazolo[1,5-c]quinazolin-5-yl]amino}-1,4-diazepan-5-one]	6.98e-08	17.1			
C[C@@H](Nc1nc2c(Br)cccc2c2nc(-c3cnn(C)c3)nn12)C(=O)NCCN1CCCCC1 [Example 896, N^2-[7-bromo-2-(1-methyl-1H-pyrazol-4-yl)[1,2,4]triazolo[1,5-c]quinazolin-5-yl]-N-[2-(piperidin-1-yl)ethyl]-D-alaninamide]			2.72e-07	133	
COc1ccc(-c2nc3c4c(Br)cccc4nc(N[C@@H]4CCCCNC4=O)n3n2)cc1 [Example 164]	2.44e-09	4.54			
Cn1cc(-c2nc3c4ccccc4nc(NC4CNCCNC4=O)n3n2)cn1 (racemic) [Example 22, 6-{[2-(1-methyl-1H-pyrazol-4-yl)[1,2,4]triazolo[1,5-c]quinazolin-5-yl]amino}-1,4-diazepan-5-one]	5.33e-06	2030			
O=C1NCCC1Nc1nc2ccccc2c2nc(-c3cccc(F)c3)nn12 (centres unmarked) [Example 9, 3-{[2-(3-fluorophenyl)[1,2,4]triazolo[1,5-c]quinazolin-5-yl]amino}pyrrolidin-2-one]	2.62e-08	68			
O=C1NCCCC[C@H]1Nc1nc2ccccc2c2nc(-c3cccc(OC(F)(F)F)c3)nn12 [Example 309, (3R)-3-({2-[3-(Trifluoromethoxy)phenyl][1,2,4]triazolo[1,5-c]quinazolin-5-yl}amino)azepan-2-one]	2.47e-08	1.97			
O=C1NCC[C@H]1Nc1nc2ccccc2c2nc(-c3cc(Cl)ccc3OC(F)(F)F)nn12 [Example 500, (3R)-3-({2-[5-chloro-2-(trifluoromethoxy)phenyl][1,2,4]triazolo[1,5-c]quinazolin-5-yl}amino)pyrrolidin-2-one]	> 2e-05	2970			
COc1cccc(-c2nc3c4c(F)cccc4nc(N[C@H](C)C(N)=O)n3n2)c1 [Example 184, N^2-[10-fluoro-2-(3-methoxyphenyl)[1,2,4]triazolo[1,5-c]quinazolin-5-yl]-D-alaninamide]	9.66e-09	62.8			
COc1ccc(-c2nc3c4cccc(Br)c4nc(N[C@H](C)C(=O)N4CCN(C(=O)OC(C)(C)C)CC4)n3n2)cc1 [Example 883, tert-butyl 4-{N-[7-bromo-2-(4-methoxyphenyl)[1,2,4]triazolo[1,5-c]quinazolin-5-yl]-D-alanyl}piperazine-1-carboxylate]			5.84e-09	7.79	
